The values below come from patent US7259161B2, “Compositions useful as inhibitors of JAK and other protein kinases” (Vertex Pharmaceuticals Incorporated, priority 2002, dated 2007).

The Ki is the dissociation constant of the complex between target and ligand, obtained from inhibition or displacement.

What all share (format): biochemical
One experiment concerns the target T1, JAK3 (Homo sapiens, UniProt P52333).
T1 sequence (P52333 1-1124): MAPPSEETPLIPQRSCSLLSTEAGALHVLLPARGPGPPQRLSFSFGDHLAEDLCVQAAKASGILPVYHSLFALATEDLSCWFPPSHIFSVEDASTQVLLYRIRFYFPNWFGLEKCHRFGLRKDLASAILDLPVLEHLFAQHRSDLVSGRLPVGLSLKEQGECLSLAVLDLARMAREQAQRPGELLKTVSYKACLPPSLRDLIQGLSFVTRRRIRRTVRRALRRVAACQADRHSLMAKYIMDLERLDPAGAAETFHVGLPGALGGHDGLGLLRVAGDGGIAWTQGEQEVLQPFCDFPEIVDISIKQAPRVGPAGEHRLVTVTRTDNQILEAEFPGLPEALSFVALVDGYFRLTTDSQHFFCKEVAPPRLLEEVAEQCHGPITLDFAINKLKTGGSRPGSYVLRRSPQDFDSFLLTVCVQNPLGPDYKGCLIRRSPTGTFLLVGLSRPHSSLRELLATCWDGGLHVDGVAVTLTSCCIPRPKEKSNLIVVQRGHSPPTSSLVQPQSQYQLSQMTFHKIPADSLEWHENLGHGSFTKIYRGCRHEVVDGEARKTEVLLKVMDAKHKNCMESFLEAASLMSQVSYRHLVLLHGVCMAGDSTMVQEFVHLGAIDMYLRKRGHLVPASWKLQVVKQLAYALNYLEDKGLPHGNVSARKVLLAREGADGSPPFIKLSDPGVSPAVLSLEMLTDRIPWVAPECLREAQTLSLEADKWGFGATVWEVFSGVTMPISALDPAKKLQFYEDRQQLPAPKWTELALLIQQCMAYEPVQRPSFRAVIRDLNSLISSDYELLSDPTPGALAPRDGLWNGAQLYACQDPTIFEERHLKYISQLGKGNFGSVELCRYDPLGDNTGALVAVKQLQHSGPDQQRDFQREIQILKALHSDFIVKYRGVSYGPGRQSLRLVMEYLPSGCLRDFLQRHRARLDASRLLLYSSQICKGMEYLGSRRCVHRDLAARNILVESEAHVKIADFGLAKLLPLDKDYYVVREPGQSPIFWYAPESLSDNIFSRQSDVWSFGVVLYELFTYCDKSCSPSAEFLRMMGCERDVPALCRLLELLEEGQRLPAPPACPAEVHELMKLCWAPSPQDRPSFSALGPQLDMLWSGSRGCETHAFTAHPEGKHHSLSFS
Description: JAK3 inhibition assay. Conditions: 2 μM ATP, ELISA read at 450 nm. On the procedure:
Compounds were screened for their ability to inhibit JAK3 according to the method described by G. R. Brown, et al, Bioorg. Med. Chem. Lett. 2000, vol. 10, pp 575–579 in the following manner. Into Maxisorb plates, previously coated at 4° C. with Poly (Glu, Ala, Tyr) 6:3:1 then washed with phosphate buffered saline 0.05% and Tween (PBST), was added 2 μM ATP, 5 MM MgCl2, and a solution of compound in DMSO. The reaction was started with JAK enzyme and the plates incubated for 60 minutes at 30° C. The plates were then washed with PBST, 100 μL HRP-Conjugated 4G10 antibody was added, and the plate incubated for 90 minutes at 30° C. The plate was again washed with PBST, 100 μL TMB solution is added, and the plates were incubated for another 30 minutes at 30° C. Sulfuric acid (100 μL of 1M) was added to stop the reaction and the plate is read at 450 nm to obtain the optical densities for analysis to determine Ki values.
For orientation: ELISA stands for enzyme-linked immunosorbent assay.

For a further experiment, the target named is JNK3 (Homo sapiens, UniProt P53779). The experiment can be described thus: JNK3 inhibition assay (spectrophotometric coupled-enzyme assay). Conditions: 10 μM ATP, 10 nM activated JNK3. The procedure: Compounds were assayed for the inhibition of JNK3 by a spectrophotometric coupled-enzyme assay. In this assay, a fixed concentration of activated JNK3 (10 nM) was incubated with various concentrations of a potential inhibitor dissolved in DMSO for 10 minutes at 30° C. in a buffer containing 0.1 M HEPES buffer, pH 7.5, containing 10 mM MgCl2, 2.5 mM phosphoenolpyruvate, 200 μM NADH, 150 μg/mL pyruvate kinase, 50 μg/mL lactate dehydrogenase, and 200 μM EGF receptor peptide. The EGF receptor peptide is a phosphoryl acceptor in the JNK3-catalyzed kinase reaction. The reaction was initiated by the addition of 10 μM ATP and the assay plate is inserted into the spectrophotometer's assay plate compartment that was maintained at 30° C. The decrease of absorbance at 340 nm was monitored as a function of time. The rate data as a function of inhibitor concentration was fitted to competitive inhibition kinetic model to determine the Ki.

The next experiment has as its target CDK-2/Cyclin A (Homo sapiens, UniProt P24941). The experiment can be described thus: CDK2 inhibition assay (coupled enzyme assay). Conditions: 100 μM ATP, 25 nM CDK-2/Cyclin A. The procedure:
Compounds were screened for their ability to inhibit CDK-2/Cyclin A using a standard coupled enzyme assay (Fox et al (1998) Protein Sci 7, 2249). Reactions were carried out in 100 mM HEPES pH 7.5, 10 mM MgCl2, 25 mM NaCl, 1 mM DTT and 1.5% DMSO. Final substrate concentrations in the assay were 100 μM ATP (Sigma chemicals) and 100 μM peptide (American Peptide, Sunnyvale, Calif.). Assays were carried out at 30° C. and 25 nM CDK-2/Cyclin A. Final concentrations of the components of the coupled enzyme system were 2.5 mM phosphoenolpyruvate, 350 μM NADH, 30 μg/ml pyruvate kinase and 10 μg/ml lactate dehydrogenase.
An assay stock buffer solution was prepared containing all of the reagents listed above, with the exception of CDK-2/Cyclin A, DTT and the test compound of interest. 56 μl of the test reaction was placed in a 384 well plate followed by addition of 1 μl of 2 mM DMSO stock containing the test compound (final compound concentration 30 μM). The plate was preincubated for ˜10 minutes at 30° C. and the reaction initiated by addition of 10 μl of enzyme (final concentration 25 nM). Rates of reaction were obtained using a BioRad Ultramark plate reader (Hercules, Calif.) over a 5 minute read time at 30° C. Compounds showing >50% inhibition versus standard wells containing DMSO, but no compound, were titrated and IC50's determined using a similar protocol.

A value given as a limit tells only on which side of the number the result lay.

Chain of JNK3 (P53779 whole entry, species assumed): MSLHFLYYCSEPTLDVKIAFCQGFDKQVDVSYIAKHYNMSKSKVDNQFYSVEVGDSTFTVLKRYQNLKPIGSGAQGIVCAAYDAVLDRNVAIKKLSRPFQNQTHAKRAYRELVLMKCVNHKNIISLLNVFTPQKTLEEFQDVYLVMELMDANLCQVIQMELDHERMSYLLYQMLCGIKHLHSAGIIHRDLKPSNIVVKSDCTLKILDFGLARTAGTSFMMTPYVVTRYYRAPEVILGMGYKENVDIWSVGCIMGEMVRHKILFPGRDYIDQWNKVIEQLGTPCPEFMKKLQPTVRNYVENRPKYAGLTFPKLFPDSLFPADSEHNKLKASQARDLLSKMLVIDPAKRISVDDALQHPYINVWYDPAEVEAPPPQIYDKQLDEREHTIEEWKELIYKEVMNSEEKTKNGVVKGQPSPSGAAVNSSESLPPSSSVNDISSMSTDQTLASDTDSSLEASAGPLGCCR

For the compound `CN1C(=O)COc2ccc(-c3ccnc(Nc4ccccc4)n3)cc21` [IVa-1], the Ki at JAK3 and on JNK3 was less than 1 µM throughout.

`CN1C(=O)COc2ccc(-c3ccnc(Nc4cccc(F)c4)n3)cc21` [IVa-2]: the inhibition constant Ki at JAK3 was less than 5 µM; at JNK3, less than 1 µM. Taken in the same sequence, the figures for `Cc1cccc(Nc2nccc(-c3ccc4c(c3)N(C)C(=O)CO4)n2)c1` [IVa-3] were less than 1 µM and less than 1 µM. As to `Cc1ccc(Nc2nccc(-c3ccc4c(c3)N(C)C(=O)CO4)n2)cc1` [IVa-4], the Ki was less than 5 µM on JAK3 and less than 1 µM on JNK3. In the same order, the values of `COc1ccc(Nc2nccc(-c3ccc4c(c3)N(C)C(=O)CO4)n2)cc1` [IVa-5] are less than 5 µM and less than 1 µM. With `Cc1cc(C)cc(Nc2nccc(-c3ccc4c(c3)N(C)C(=O)CO4)n2)c1` [IVa-6], the inhibitory constant (Ki) at JAK3 was less than 1 µM. On the same count and under the same terms, with `COc1cc(Nc2nccc(-c3ccc4c(c3)N(C)C(=O)CO4)n2)cc(OC)c1` [IVa-7] the figure was less than 1 µM; with `O=C1COc2ccc(-c3ccnc(Nc4cccc(F)c4)n3)cc2N1` [IVa-10], less than 5 µM.

At JAK3, `O=C1COc2ccc(-c3ccnc(Nc4ccc(F)cc4)n3)cc2N1` [IVa-11] registered a Ki of less than 5 µM. Same read-out and setting: with `O=C1COc2ccc(-c3ccnc(Nc4ccc(Cl)cc4)n3)cc2N1` [IVa-13] the figure was less than 5 µM; with `COc1cccc(Nc2nccc(-c3ccc4c(c3)NC(=O)CO4)n2)c1` [IVa-14], less than 1 µM.

`Cc1ccccc1Nc1nccc(-c2ccc3c(c2)NC(=O)CO3)n1` [IVa-15]: on JAK3, the Ki is less than 1 µM. Same read-out and setting: with `NS(=O)(=O)c1cccc(Nc2nccc(-c3ccc4c(c3)NC(=O)CO4)n2)c1` [IVa-21] the figure was less than 1 µM. Turning to `CN1C(=O)COc2ccc(-c3ccnc(Nc4cccc(S(N)(=O)=O)c4)n3)cc21` [IVa-22], the inhibition constant Ki at JAK3, on JNK3 and at CDK-2/Cyclin A was less than 1 µM throughout. As to `CN1C(=O)COc2ccc(-c3ccnc(Nc4cccc(C(N)=O)c4)n3)cc21` [IVa-25], the inhibition constant Ki at JAK3 is less than 1 µM.

The compound `CN1C(=O)COc2ccc(-c3ccnc(Nc4cccc(C#N)c4)n3)cc21` [IVa-26] had a Ki at JAK3 of less than 5 µM. In the case of `CN1C(=O)COc2ccc(-c3ccnc(Nc4cccc(O)c4)n3)cc21` [IVa-27], the Ki on JAK3 is less than 1 µM. With `COc1cccc(Nc2nccc(-c3ccc4c(c3)N(C)C(=O)CO4)n2)c1` [IVa-28], the inhibition constant Ki on JAK3 was less than 1 µM.

With `O=C1COc2ccc(-c3ccnc(Nc4ccccc4)n3)cc2N1CCN1CCOCC1` [IVa-29], on JAK3, the Ki is less than 5 µM.

In the case of `O=C1COc2ccc(-c3ccnc(Nc4cccc(F)c4)n3)cc2N1CCN1CCOCC1` [IVa-30], the Ki on JAK3 was less than 5 µM.

As for `O=C1COc2ccc(-c3ccnc(Nc4cccc(Cl)c4)n3)cc2N1CCN1CCOCC1` [IVa-31], on JAK3, the Ki was less than 5 µM.

Consider `O=C1COc2ccc(-c3ccnc(Nc4cccc(O)c4)n3)cc2N1CCN1CCOCC1` [IVa-32], for which the inhibition constant Ki at JAK3 was less than 5 µM. With `COc1cccc(Nc2nccc(-c3ccc4c(c3)N(CCN3CCOCC3)C(=O)CO4)n2)c1` [IVa-36], on JAK3, the Ki is less than 5 µM. On the same count and under the same terms, with `NS(=O)(=O)c1ccc(Nc2nccc(-c3ccc4c(c3)N(CCN3CCOCC3)C(=O)CO4)n2)cc1` [IVa-39] the figure was less than 5 µM; with `O=C1COc2ccc(-c3ccnc(Nc4ccccc4)n3)cc2N1Cc1cccnc1` [IVa-41], less than 5 µM. The same measure, in the same setting: with `O=C1COc2ccc(-c3ccnc(Nc4cccc(Cl)c4)n3)cc2N1Cc1cccnc1` [IVa-43] the figure was less than 5 µM; with `O=C1COc2ccc(-c3ccnc(Nc4cccc(O)c4)n3)cc2N1Cc1cccnc1` [IVa-44], less than 1 µM; with `COc1cccc(Nc2nccc(-c3ccc4c(c3)N(Cc3cccnc3)C(=O)CO4)n2)c1` [IVa-45], less than 5 µM. Same read-out and setting: with `COC(=O)c1cccc(Nc2nccc(-c3ccc4c(c3)N(Cc3cccnc3)C(=O)CO4)n2)c1` [IVa-46] the figure was less than 5 µM. For `N#Cc1cccc(Nc2nccc(-c3ccc4c(c3)N(Cc3cccnc3)C(=O)CO4)n2)c1` [IVa-47], the inhibition constant Ki on JAK3 is less than 5 µM. On the same count and under the same terms, with `O=C1COc2ccc(-c3ccnc(Nc4cccc(-c5ccccc5)c4)n3)cc2N1Cc1cccnc1` [IVa-48] the figure was less than 5 µM; with `NS(=O)(=O)c1cccc(Nc2nccc(-c3ccc4c(c3)N(Cc3cccnc3)C(=O)CO4)n2)c1` [IVa-50], less than 5 µM; with `NS(=O)(=O)c1ccc(Nc2nccc(-c3ccc4c(c3)N(Cc3cccnc3)C(=O)CO4)n2)cc1` [IVa-51], less than 1 µM. `Cc1cc(C)cc(Nc2nccc(-c3ccc4c(c3)N(Cc3cccnc3)C(=O)CO4)n2)c1` [IVa-52] registered an inhibition constant Ki at JAK3 of less than 5 µM.

For the compound `NC(=O)c1cccc(Nc2nccc(-c3ccc4c(c3)N(Cc3cccnc3)C(=O)CO4)n2)c1` [IVa-53], on JAK3, the Ki is less than 1 µM. The same measure, in the same setting: with `O=C1COc2ccc(-c3ccnc(Nc4cccc(F)c4)n3)cc2N1Cc1ccccn1` [IVa-55] the figure was less than 5 µM; with `O=C1COc2ccc(-c3ccnc(Nc4cccc(Cl)c4)n3)cc2N1Cc1ccccn1` [IVa-56], less than 5 µM; with `COc1cccc(Nc2nccc(-c3ccc4c(c3)N(Cc3ccccn3)C(=O)CO4)n2)c1` [IVa-57], less than 1 µM. Still for that read-out and setting: with `COC(=O)c1cccc(Nc2nccc(-c3ccc4c(c3)N(Cc3ccccn3)C(=O)CO4)n2)c1` [IVa-58] the figure was less than 5 µM; with `O=C1COc2ccc(-c3ccnc(Nc4cccc(-c5ccccc5)c4)n3)cc2N1Cc1ccccn1` [IVa-59], less than 5 µM. At JAK3, `O=C1COc2ccc(-c3ccnc(Nc4cccc(Oc5ccccc5)c4)n3)cc2N1Cc1ccccn1` [IVa-60] had a Ki of less than 5 µM. On the same count and under the same terms, with `O=C1COc2ccc(-c3ccnc(Nc4cccc(Cl)c4)n3)cc2N1Cc1ccncc1` [IVa-66] the figure was less than 5 µM; with `NS(=O)(=O)c1cccc(Nc2nccc(-c3ccc4c(c3)N(Cc3ccncc3)C(=O)CO4)n2)c1` [IVa-70], less than 5 µM; with `NS(=O)(=O)c1ccc(Nc2nccc(-c3ccc4c(c3)N(Cc3ccncc3)C(=O)CO4)n2)cc1` [IVa-71], less than 1 µM.

As for `Cc1cc(C)cc(Nc2nccc(-c3ccc4c(c3)N(Cc3ccncc3)C(=O)CO4)n2)c1` [IVa-72], the Ki on JAK3 was less than 5 µM.
